According to the NIST ThermoML archive (doi:10.1016/j.jct.2016.06.001):

Details: Liquid, Frequency=8 MHz, Pulse-echo method

CC(C)CO [2-methyl-1-propanol]
Details | speed of sound [m/s]
253.15 K, 102 kPa | 1347.3
253.15 K, 5144 kPa | 1373.7
253.15 K, 10257 kPa | 1399.1
253.15 K, 15122 kPa | 1422.2
253.15 K, 20400 kPa | 1446.6
253.15 K, 25315 kPa | 1468
253.15 K, 30039 kPa | 1488.7
273.15 K, 105 kPa | 1274.2
273.15 K, 5154 kPa | 1302.8
273.15 K, 10139 kPa | 1329.4
273.15 K, 15072 kPa | 1354.7
273.15 K, 20215 kPa | 1380
273.15 K, 25138 kPa | 1403.2
273.15 K, 30242 kPa | 1426.4
293.15 K, 102 kPa | 1204.9
293.15 K, 5004 kPa | 1234.9
293.15 K, 10097 kPa | 1264.2
293.15 K, 15140 kPa | 1291.7
293.15 K, 20220 kPa | 1318.2
293.15 K, 25063 kPa | 1342.5
293.15 K, 30100 kPa | 1366.7
313.15 K, 104 kPa | 1138.1
313.15 K, 5135 kPa | 1171.1
313.15 K, 10050 kPa | 1201.4
313.15 K, 15190 kPa | 1231.5
313.15 K, 20126 kPa | 1259
313.15 K, 25019 kPa | 1285.1
313.15 K, 30259 kPa | 1311.7
333.15 K, 100 kPa | 1071.8
333.15 K, 5187 kPa | 1108
333.15 K, 10181 kPa | 1141.3
333.15 K, 15331 kPa | 1173.6
333.15 K, 20135 kPa | 1202
333.15 K, 25174 kPa | 1230.4
333.15 K, 30144 kPa | 1257
353.15 K, 104 kPa | 1004.1
353.15 K, 5055 kPa | 1042.8
353.15 K, 10093 kPa | 1079.4
353.15 K, 15238 kPa | 1114.2
353.15 K, 20157 kPa | 1145.4
353.15 K, 25111 kPa | 1175.1
353.15 K, 30108 kPa | 1203.6
